# Laboratory results from patent publication US9695155B2, “Herbicidal substituted pyrimidinyloxy benzene compounds” (E. I. DU PONT DE NEMOURS AND COMPANY, priority 2013, dated 2017).
# Tests used:
# Heteranthera limosa = assay: Test B flooded paddy test; assay type: in vivo; conditions: Heteranthera limosa, Flood, 250 g ai/ha; 0 to 100 scale where 0 is no effect and 100 is complete control; read-out: Plant response rating, Ducksalad
# How it was run: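 2-leaf stage plants; pots flooded to 3 cm, compound added to paddy water, depth maintained. Greenhouse 13–15 d. Visual rating vs untreated controls, 0 (no effect) to 100 (complete control); dash = no result.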
# barnyardgrass [1] = assay: Test A preemergence; assay type: in vivo, Echinochloa crus-galli; conditions: Echinochloa crus-galli, pre-emergence, 240 h
# How it was run: (§1)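 Compounds in non-phytotoxic solvent with surfactant applied as soil spray preemergence, or postemergence to plants 2-10 cm at one- to two-leaf stage, in loam/sand. After approximately 10 days in greenhouse, injury rated visually versus untreated controls, 0 (no effect) to 100 (complete control).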
# wild oat = assay: Test C postemergence; assay type: in vivo, Avena fatua; conditions: Avena fatua, post-emergence
# How it was run: (§2)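 Visual injury score versus untreated controls, 0 = no effect, 100 = complete control, taken 13 to 15 days after treatment in the greenhouse. Pre-emergence pots held loam/sand; post-emergence plants grew in sphagnum peat/vermiculite mix and were sprayed at the 1- to 4-leaf stage.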
# pigweed [2] = assay: Test A preemergence; assay type: in vivo, Amaranthus retroflexus; conditions: Amaranthus retroflexus, pre-emergence
# How it was run: as §1
# blackgrass = assay: Test C postemergence; assay type: in vivo, Alopecurus myosuroides; conditions: Alopecurus myosuroides, post-emergence
# How it was run: as §2
# ragweed = assay: Test C postemergence; assay type: in vivo, Ambrosia elatior; conditions: Ambrosia artemisiifolia, post-emergence
# How it was run: as §2
# morningglory [3] = assay: Test A preemergence; assay type: in vivo, Ipomoea spp.
# How it was run: as §1
# barnyardgrass [4] = assay: Test C postemergence; assay type: in vivo, Echinochloa crus-galli; conditions: Echinochloa crus-galli, post-emergence
# How it was run: as §2
# velvetleaf [5] = assay: Test C postemergence; assay type: in vivo, Abutilon theophrasti; conditions: Abutilon theophrasti, post-emergence
# How it was run: as §2
# pigweed [6] = assay: Test C postemergence; assay type: in vivo, Amaranthus retroflexus; conditions: Amaranthus retroflexus, post-emergence
# How it was run: as §2
# kochia = assay: Test C postemergence; assay type: in vivo, Kochia scoparia; conditions: Bassia scoparia, post-emergence
# How it was run: as §2
# wheat = assay: Test A postemergence; assay type: in vivo, Triticum aestivum; conditions: Triticum aestivum, post-emergence, 240 h
# How it was run: as §1
# morningglory [7] = assay: Test C postemergence; assay type: in vivo, Ipomoea coccinea; conditions: Ipomoea, post-emergence
# How it was run: as §2
# morningglory [8] = assay: Test A postemergence; assay type: in vivo, Ipomoea spp.; conditions: Ipomoea, post-emergence, 240 h
# How it was run: as §1
# velvetleaf [9] = assay: Test A preemergence; assay type: in vivo, Abutilon theophrasti
# How it was run: as §1
# [10] = 125 g ai/ha, 0 to 100 scale where 0 is no effect and 100 is complete control
compound,measurement,setting,value
"N#Cc1cccc(Oc2ncc(Cl)cn2)c1-n1cc(Br)cn1 [Compound 52, 2-(4-bromo-1H-pyrazol-1-yl)-3-[(5-chloro-2-pyrimidinyl)oxy]benzonitrile]",pest or weed control at 250 g/ha,Heteranthera limosa,70%
same,pest or weed control at 125 g/ha,"barnyardgrass [1]; 125 g ai/ha, 0 to 100 scale where 0 is no effect and 100 is complete control, read-out: Plant response rating, Barnyardgrass",90%
same,pest or weed control at 500 g/ha,"barnyardgrass [1]; 500 g ai/ha, 0 to 100 scale, 0 no effect, 100 complete control, approx. 10 days, read-out: Barnyardgrass plant response rating",100%
same,pest or weed control at 125 g/ha,"wild oat; 125 g ai/ha, postemergence, read-out: Plant response rating (0 to 100), Oat, Wild",10%
same,pest or weed control at 250 g/ha,"wild oat; 250 g ai/ha, postemergence, read-out: Plant response rating (0 to 100), Oat, Wild",15%
same,pest or weed control at 31 g/ha,"wild oat; Postemergence, 31 g ai/ha, scale 0 to 100 (0 no effect, 100 complete control), 13 to 15 days, read-out: Plant response rating, Oat, Wild",0%
same,pest or weed control at 62 g/ha,"wild oat; Postemergence, 62 g ai/ha, scale 0 to 100 (0 no effect, 100 complete control), read-out: Plant response rating, Oat, Wild",5%
same,pest or weed control at 125 g/ha,"pigweed [2]; 125 g ai/ha, 0 to 100 scale where 0 is no effect and 100 is complete control, read-out: Plant response rating, Pigweed",100%
same,pest or weed control at 500 g/ha,"pigweed [2]; 240 h, 500 g ai/ha, 0 to 100 scale, 0 no effect, 100 complete control, approx. 10 days, read-out: Pigweed plant response rating",100%
same,pest or weed control at 125 g/ha,"blackgrass; 125 g ai/ha, postemergence, read-out: Plant response rating (0 to 100), Blackgrass",10%
same,pest or weed control at 250 g/ha,"blackgrass; 250 g ai/ha, postemergence, read-out: Plant response rating (0 to 100), Blackgrass",25%
same,pest or weed control at 31 g/ha,"blackgrass; Postemergence, 31 g ai/ha, scale 0 to 100 (0 no effect, 100 complete control), 13 to 15 days, read-out: Plant response rating, Blackgrass",5%
same,pest or weed control at 62 g/ha,"blackgrass; Postemergence, 62 g ai/ha, scale 0 to 100 (0 no effect, 100 complete control), read-out: Plant response rating, Blackgrass",5%
same,pest or weed control at 125 g/ha,"ragweed; 125 g ai/ha, postemergence, read-out: Plant response rating (0 to 100), Ragweed",80%
same,pest or weed control at 250 g/ha,"ragweed; 250 g ai/ha, postemergence, read-out: Plant response rating (0 to 100), Ragweed",95%
same,pest or weed control at 31 g/ha,"ragweed; Postemergence, 31 g ai/ha, scale 0 to 100 (0 no effect, 100 complete control), 13 to 15 days, read-out: Plant response rating, Ragweed",40%
same,pest or weed control at 62 g/ha,"ragweed; Postemergence, 62 g ai/ha, scale 0 to 100 (0 no effect, 100 complete control), read-out: Plant response rating, Ragweed",45%
same,"Plant response rating, Morningglory",morningglory [3]; [10],90
same,pest or weed control at 500 g/ha,"morningglory [3]; Ipomoea, pre-emergence, 240 h, 500 g ai/ha, 0 to 100 scale, 0 no effect, 100 complete control, approx. 10 days, read-out: Morningglory plant response rating",100%
same,pest or weed control at 125 g/ha,"barnyardgrass [4]; 125 g ai/ha, postemergence, read-out: Plant response rating (0 to 100), Barnyardgrass",5%
same,pest or weed control at 250 g/ha,"barnyardgrass [4]; 250 g ai/ha, postemergence, read-out: Plant response rating (0 to 100), Barnyardgrass",10%
same,pest or weed control at 31 g/ha,"barnyardgrass [4]; Postemergence, 31 g ai/ha, scale 0 to 100 (0 no effect, 100 complete control), 13 to 15 days, read-out: Plant response rating, Barnyardgrass",0%
same,pest or weed control at 62 g/ha,"barnyardgrass [4]; Postemergence, 62 g ai/ha, scale 0 to 100 (0 no effect, 100 complete control), read-out: Plant response rating, Barnyardgrass",5%
same,pest or weed control at 125 g/ha,"velvetleaf [5]; 125 g ai/ha, postemergence, read-out: Plant response rating (0 to 100), Velvetleaf",70%
same,pest or weed control at 250 g/ha,"velvetleaf [5]; 250 g ai/ha, postemergence, read-out: Plant response rating (0 to 100), Velvetleaf",90%
same,pest or weed control at 31 g/ha,"velvetleaf [5]; Postemergence, 31 g ai/ha, scale 0 to 100 (0 no effect, 100 complete control), 13 to 15 days, read-out: Plant response rating, Velvetleaf",50%
same,pest or weed control at 62 g/ha,"velvetleaf [5]; Postemergence, 62 g ai/ha, scale 0 to 100 (0 no effect, 100 complete control), read-out: Plant response rating, Velvetleaf",60%
same,pest or weed control at 125 g/ha,"pigweed [6]; 125 g ai/ha, postemergence, read-out: Plant response rating (0 to 100), Pigweed",80%
same,pest or weed control at 250 g/ha,"pigweed [6]; 250 g ai/ha, postemergence, read-out: Plant response rating (0 to 100), Pigweed",95%
same,pest or weed control at 31 g/ha,"pigweed [6]; Postemergence, 31 g ai/ha, scale 0 to 100 (0 no effect, 100 complete control), 13 to 15 days, read-out: Plant response rating, Pigweed",60%
same,pest or weed control at 62 g/ha,"pigweed [6]; Postemergence, 62 g ai/ha, scale 0 to 100 (0 no effect, 100 complete control), read-out: Plant response rating, Pigweed",60%
same,pest or weed control at 125 g/ha,"kochia; 125 g ai/ha, postemergence, read-out: Plant response rating (0 to 100), Kochia",90%
same,pest or weed control at 250 g/ha,"kochia; 250 g ai/ha, postemergence, read-out: Plant response rating (0 to 100), Kochia",95%
same,pest or weed control at 31 g/ha,"kochia; Postemergence, 31 g ai/ha, scale 0 to 100 (0 no effect, 100 complete control), 13 to 15 days, read-out: Plant response rating, Kochia",75%
same,pest or weed control at 62 g/ha,"kochia; Postemergence, 62 g ai/ha, scale 0 to 100 (0 no effect, 100 complete control), read-out: Plant response rating, Kochia",90%
same,plant injury at 125 g/ha,"wheat; 125 g ai/ha, 0 to 100 scale where 0 is no effect and 100 is complete control, read-out: Plant response rating, Wheat",40%
same,plant injury at 500 g/ha,"wheat; 500 g ai/ha, 0 to 100 scale, 0 no effect, 100 complete control, read-out: Plant response rating Wheat",100%
same,pest or weed control at 125 g/ha,"morningglory [7]; 125 g ai/ha, postemergence, read-out: Plant response rating (0 to 100), Morningglory",95%
same,pest or weed control at 250 g/ha,"morningglory [7]; 250 g ai/ha, postemergence, read-out: Plant response rating (0 to 100), Morningglory",100%
same,pest or weed control at 31 g/ha,"morningglory [7]; Postemergence, 31 g ai/ha, scale 0 to 100 (0 no effect, 100 complete control), 13 to 15 days, read-out: Plant response rating, Morningglory",80%
same,pest or weed control at 62 g/ha,"morningglory [7]; Postemergence, 62 g ai/ha, scale 0 to 100 (0 no effect, 100 complete control), read-out: Plant response rating, Morningglory",80%
same,pest or weed control at 125 g/ha,"morningglory [8]; 125 g ai/ha, 0 to 100 scale where 0 is no effect and 100 is complete control, read-out: Plant response rating, Morningglory",100%
same,pest or weed control at 500 g/ha,"morningglory [8]; 500 g ai/ha, 0 to 100 scale, 0 no effect, 100 complete control, read-out: Plant response rating Morningglory",100%
same,"Plant response rating, Velvetleaf",velvetleaf [9]; [10],100
same,pest or weed control at 500 g/ha,"velvetleaf [9]; Abutilon theophrasti, pre-emergence, 240 h, 500 g ai/ha, 0 to 100 scale, 0 no effect, 100 complete control, approx. 10 days, read-out: Velvetleaf plant response rating",100%
